Tests used:
Assay in all cases: Protein kinase selectivity panel
Assay type in all cases: biochemical
Conditions in all cases: 1.0 μM compound, 10 μM ATP
EphB4(h) = target: T1, EphB4(h) (Homo sapiens, UniProt P54760)
T1 sequence (P54760 16-987): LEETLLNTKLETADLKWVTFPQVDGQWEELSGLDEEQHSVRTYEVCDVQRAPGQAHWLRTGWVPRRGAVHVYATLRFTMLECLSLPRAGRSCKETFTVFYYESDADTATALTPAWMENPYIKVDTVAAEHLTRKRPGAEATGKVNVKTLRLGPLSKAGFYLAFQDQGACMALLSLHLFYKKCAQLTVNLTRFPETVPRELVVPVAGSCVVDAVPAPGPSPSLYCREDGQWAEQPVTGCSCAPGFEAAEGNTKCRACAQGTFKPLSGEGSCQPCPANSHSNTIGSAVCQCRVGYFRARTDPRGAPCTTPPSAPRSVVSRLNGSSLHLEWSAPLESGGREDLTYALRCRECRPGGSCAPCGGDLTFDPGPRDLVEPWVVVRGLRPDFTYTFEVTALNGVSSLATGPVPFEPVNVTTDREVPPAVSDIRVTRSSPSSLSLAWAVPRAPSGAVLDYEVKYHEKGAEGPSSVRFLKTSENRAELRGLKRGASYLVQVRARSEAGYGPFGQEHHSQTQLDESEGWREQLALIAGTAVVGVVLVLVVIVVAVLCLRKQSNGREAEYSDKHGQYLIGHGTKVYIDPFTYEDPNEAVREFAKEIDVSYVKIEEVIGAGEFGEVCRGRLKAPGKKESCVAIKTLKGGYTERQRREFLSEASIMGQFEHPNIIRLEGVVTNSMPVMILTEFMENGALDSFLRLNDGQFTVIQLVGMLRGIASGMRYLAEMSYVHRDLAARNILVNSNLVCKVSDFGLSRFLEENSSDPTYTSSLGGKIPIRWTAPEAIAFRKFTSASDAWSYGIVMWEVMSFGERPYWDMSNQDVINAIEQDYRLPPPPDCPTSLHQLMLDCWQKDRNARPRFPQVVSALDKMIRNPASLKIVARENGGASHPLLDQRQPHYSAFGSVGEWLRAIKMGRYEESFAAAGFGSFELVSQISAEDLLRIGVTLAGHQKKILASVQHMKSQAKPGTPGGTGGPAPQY
In short: (§1)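 Kinase, its appropriate substrate, and 10 μM ATP were combined with 1.0 μM compound. Phosphorylation was then allowed to proceed within the time-linear range and measured.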

Lck(h) = Lck(h) (Homo sapiens, UniProt P06239)
In short: as §1

EphB2(h) = target: T2, EphB2(h) (Homo sapiens, UniProt P29323)
T2 sequence (P29323 19-1055): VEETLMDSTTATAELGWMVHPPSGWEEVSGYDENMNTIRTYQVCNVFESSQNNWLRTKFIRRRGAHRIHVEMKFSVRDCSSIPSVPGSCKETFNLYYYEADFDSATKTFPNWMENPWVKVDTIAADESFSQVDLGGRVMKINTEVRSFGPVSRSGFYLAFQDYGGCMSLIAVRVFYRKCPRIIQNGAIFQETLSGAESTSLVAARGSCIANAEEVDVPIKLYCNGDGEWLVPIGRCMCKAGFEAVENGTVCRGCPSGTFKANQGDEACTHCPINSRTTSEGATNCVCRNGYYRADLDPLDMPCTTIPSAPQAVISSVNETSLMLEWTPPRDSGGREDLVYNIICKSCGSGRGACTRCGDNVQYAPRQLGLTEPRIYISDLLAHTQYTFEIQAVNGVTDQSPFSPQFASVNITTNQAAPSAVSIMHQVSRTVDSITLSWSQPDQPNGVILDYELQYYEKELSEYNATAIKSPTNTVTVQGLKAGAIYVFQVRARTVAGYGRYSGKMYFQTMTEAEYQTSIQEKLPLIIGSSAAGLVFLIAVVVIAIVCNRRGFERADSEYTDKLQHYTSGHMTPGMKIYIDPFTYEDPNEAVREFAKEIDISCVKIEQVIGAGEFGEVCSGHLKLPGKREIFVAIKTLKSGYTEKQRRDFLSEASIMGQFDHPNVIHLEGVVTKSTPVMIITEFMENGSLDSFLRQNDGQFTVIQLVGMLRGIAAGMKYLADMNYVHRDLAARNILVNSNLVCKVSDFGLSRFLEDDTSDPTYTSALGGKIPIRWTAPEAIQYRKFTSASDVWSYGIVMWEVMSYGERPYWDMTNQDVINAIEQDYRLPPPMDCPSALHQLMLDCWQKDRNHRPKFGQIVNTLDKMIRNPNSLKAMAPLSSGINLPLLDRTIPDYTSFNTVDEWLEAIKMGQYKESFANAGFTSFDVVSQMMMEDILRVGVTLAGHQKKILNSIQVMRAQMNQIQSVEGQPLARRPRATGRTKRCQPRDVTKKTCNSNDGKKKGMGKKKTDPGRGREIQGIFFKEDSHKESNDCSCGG
In short: as §1

ALK(h) = ALK(h) (Homo sapiens, UniProt Q9UM73)
In short: as §1

Rsk1(h) = Rsk1(h) (Homo sapiens, UniProt Q15418)
In short: as §1

Fms(h) = Fms(h) (Homo sapiens, UniProt P07333)
In short: as §1

SAPK2b(h) = SAPK2b(h) (Homo sapiens, UniProt Q15759)
In short: as §1

Rsk1(h), sequence (Q15418 whole entry): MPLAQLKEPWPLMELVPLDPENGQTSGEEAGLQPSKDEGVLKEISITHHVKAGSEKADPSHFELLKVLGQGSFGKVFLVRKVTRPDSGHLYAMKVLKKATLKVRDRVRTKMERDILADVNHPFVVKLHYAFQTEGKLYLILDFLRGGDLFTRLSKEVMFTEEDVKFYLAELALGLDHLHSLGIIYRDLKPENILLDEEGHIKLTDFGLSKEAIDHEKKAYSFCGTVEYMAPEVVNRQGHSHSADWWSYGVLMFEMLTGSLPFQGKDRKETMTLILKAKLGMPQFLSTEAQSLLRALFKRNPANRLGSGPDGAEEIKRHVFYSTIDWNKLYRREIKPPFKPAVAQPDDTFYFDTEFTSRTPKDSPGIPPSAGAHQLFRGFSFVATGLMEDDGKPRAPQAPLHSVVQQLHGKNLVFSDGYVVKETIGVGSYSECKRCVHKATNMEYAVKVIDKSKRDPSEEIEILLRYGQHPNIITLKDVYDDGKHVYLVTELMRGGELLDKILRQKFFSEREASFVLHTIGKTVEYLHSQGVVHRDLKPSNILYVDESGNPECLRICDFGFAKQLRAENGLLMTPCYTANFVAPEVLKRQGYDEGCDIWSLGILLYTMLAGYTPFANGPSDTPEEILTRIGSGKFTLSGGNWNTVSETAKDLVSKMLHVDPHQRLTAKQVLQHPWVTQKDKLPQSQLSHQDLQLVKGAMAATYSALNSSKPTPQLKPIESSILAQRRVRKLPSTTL
Fms(h), sequence (P07333 20-972): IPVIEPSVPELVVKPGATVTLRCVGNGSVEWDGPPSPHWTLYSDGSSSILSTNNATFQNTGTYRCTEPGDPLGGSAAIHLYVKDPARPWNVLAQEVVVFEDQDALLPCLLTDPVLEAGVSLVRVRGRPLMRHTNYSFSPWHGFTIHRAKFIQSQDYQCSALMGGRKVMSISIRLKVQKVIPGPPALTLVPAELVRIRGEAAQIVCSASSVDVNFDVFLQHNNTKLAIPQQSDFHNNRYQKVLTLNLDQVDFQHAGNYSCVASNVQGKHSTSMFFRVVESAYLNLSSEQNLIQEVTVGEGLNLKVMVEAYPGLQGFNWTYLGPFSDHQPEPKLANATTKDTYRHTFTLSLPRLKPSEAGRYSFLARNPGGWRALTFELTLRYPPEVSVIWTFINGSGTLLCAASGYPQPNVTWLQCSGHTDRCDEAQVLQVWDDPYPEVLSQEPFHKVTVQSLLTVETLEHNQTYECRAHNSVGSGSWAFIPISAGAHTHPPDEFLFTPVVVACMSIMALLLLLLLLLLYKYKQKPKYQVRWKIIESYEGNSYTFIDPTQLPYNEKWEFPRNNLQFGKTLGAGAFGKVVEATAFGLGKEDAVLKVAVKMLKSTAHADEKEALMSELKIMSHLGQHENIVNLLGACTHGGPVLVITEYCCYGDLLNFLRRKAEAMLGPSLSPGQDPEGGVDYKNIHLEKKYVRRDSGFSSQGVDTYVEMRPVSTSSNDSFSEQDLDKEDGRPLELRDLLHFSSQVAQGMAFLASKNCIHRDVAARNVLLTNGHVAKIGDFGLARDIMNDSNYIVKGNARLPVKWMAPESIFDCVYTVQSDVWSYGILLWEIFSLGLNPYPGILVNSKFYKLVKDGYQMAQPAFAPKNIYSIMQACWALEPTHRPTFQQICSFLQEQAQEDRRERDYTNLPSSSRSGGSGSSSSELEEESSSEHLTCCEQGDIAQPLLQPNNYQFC
Lck(h), sequence (P06239 whole entry): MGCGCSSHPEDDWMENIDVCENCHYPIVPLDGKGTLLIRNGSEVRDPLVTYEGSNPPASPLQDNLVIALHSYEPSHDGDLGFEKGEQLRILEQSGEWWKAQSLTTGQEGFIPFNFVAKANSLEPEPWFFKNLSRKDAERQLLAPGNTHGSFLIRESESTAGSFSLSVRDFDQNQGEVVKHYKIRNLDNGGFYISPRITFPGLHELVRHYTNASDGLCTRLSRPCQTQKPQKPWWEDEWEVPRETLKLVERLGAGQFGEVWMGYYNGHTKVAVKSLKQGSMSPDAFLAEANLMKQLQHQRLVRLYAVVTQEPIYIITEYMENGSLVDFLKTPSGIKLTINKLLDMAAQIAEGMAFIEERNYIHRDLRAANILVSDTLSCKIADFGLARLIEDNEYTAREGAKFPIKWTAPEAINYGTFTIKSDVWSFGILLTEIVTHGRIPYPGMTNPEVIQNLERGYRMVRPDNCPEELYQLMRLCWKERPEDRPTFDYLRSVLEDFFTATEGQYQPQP
SAPK2b(h), sequence (Q15759 whole entry): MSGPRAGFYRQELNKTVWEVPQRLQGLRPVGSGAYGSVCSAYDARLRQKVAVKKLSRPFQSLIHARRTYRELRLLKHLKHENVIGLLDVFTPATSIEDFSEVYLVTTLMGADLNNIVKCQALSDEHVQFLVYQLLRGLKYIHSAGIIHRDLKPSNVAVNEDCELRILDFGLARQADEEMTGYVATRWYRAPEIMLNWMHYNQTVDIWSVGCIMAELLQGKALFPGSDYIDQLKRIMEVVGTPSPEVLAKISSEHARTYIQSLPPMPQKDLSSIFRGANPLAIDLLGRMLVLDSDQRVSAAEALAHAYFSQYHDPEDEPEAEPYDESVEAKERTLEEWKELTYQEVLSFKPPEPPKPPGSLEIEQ
ALK(h), sequence (Q9UM73 19-1620): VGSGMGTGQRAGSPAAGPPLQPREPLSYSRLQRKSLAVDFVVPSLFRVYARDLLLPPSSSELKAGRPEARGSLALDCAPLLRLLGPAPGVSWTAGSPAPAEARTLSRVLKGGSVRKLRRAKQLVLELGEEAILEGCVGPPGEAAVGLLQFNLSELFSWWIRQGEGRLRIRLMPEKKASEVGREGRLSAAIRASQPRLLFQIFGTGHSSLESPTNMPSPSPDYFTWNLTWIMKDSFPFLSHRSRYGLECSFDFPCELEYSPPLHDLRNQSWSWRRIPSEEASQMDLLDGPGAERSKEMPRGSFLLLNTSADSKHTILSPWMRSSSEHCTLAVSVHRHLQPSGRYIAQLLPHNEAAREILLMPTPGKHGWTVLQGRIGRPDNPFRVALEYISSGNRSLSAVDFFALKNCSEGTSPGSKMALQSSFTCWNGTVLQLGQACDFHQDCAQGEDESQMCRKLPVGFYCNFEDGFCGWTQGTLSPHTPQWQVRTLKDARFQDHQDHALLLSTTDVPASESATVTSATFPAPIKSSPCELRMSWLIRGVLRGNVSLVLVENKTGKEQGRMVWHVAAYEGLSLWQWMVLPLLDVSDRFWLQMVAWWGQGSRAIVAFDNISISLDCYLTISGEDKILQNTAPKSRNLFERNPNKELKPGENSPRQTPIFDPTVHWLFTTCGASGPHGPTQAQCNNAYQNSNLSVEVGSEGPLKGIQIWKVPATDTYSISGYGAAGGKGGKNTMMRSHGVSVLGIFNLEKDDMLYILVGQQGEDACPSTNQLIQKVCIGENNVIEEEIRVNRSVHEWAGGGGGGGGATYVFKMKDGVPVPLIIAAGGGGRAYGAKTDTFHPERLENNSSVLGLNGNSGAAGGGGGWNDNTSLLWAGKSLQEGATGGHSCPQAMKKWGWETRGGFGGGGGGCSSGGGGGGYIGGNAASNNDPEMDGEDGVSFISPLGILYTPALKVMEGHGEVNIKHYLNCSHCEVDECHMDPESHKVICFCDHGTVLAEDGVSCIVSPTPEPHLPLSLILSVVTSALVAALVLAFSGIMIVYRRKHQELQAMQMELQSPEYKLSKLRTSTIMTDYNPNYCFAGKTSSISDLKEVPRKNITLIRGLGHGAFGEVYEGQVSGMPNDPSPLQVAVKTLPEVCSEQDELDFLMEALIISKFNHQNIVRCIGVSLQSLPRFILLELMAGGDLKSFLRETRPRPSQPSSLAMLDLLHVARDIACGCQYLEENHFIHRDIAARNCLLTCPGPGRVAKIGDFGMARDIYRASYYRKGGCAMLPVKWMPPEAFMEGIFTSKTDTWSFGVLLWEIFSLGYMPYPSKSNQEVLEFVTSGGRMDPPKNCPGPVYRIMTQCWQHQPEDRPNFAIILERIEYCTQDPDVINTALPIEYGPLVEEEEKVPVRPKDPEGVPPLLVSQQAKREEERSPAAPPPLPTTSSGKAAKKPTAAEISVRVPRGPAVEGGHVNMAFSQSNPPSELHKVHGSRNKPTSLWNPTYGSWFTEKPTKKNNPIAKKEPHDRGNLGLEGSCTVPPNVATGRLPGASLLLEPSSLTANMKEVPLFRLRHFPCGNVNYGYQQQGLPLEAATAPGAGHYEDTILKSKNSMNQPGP

Row | Activity at Protein Kinase Assays (% of control), EphB4(h) (EphB4(h)) | Activity at Protein Kinase Assays (% of control), Lck(h) (Lck(h)) | Activity at Protein Kinase Assays (% of control), EphB2(h) (EphB2(h)) | Activity at Protein Kinase Assays (% of control), ALK(h) (ALK(h)) | Activity at Protein Kinase Assays (% of control), Rsk1(h) (Rsk1(h)) | Activity at Protein Kinase Assays (% of control), Fms(h) (Fms(h)) | Activity at Protein Kinase Assays (% of control), SAPK2b(h) (SAPK2b(h)) | SMILES
1 | 109 % of control | 99 % of control | 110 % of control | 58 % of control | 15 % of control | 99 % of control | 114 % of control | O=C1NC(=O)C2=C1c1cn(c3ccccc13)CCCc1cc(nc(N3CCCC3)c1)CCCn1cc2c2ccccc21 [Cpd 6, 20-pyrrolidin-1-yl-4,14,19,26-tetraazaheptacyclo[24.6.1.1^7,14.1^18,22.0^2,6.0^8,13.0^27,32]pentatriaconta-1(33),2(6),7(35),8,10,12,18(34),19,21,27,29,31-dodecaene-3,5-dione]
2 | 100 % of control | 90 % of control | 114 % of control | 74 % of control | 85 % of control | 106 % of control | 99 % of control | O=C1NC(=O)C2=C1c1cn(c3ccccc13)CCCc1ccc(c(N3CCCC3)n1)CCCn1cc2c2ccccc21 [Cpd 7, 31-pyrrolidin-1-yl-5,15,25,30-tetraazaheptacyclo[27.2.2.1^5,12.1^18,25.0^6,11.0^13,17.0^19,24]pentatriaconta-1(31),6,8,10,12(35),13(17),18(34),19,21,23,29,32-dodecaene-14,16-dione]
3 | 103 % of control | 100 % of control | 114 % of control | 55 % of control | 15 % of control | 101 % of control | 119 % of control | CN(C)c1cc2cc(n1)CCCn1cc(c3ccccc31)C1=C(C(=O)NC1=O)c1cn(c3ccccc13)CCC2 [Cpd 2, 20-(dimethylamino)-4,14,19,26-tetraazaheptacyclo[24.6.1.1^7,14.1^18,22.0^2,6.0^8,13.0^27,32]pentatriaconta-1(33),2(6),7(35),8,10,12,18(34),19,21,27,29,31-dodecaene-3,5-dione]
4 | 89 % of control | 96 % of control | 125 % of control | 103 % of control | 39 % of control | 94 % of control | 104 % of control | CN(C)c1nc2ccc1CCCCn1cc(c3ccccc31)C1=C(C(=O)NC1=O)c1cn(c3ccccc13)CCC2 [Cpd 1, 31-(dimethylamino)-5,15,25,32-tetraazaheptacyclo[28.2.2.1^5,12.1^18,25.0^6,11.0^13,17.0^19,24]hexatriaconta-1(32),6,8,10,12(36),13(17),18(35),19,21,23,30,33-dodecaene-14,16-dione]
